Legend:
human Mnk2 protein = human Mnk2 protein (Homo sapiens, UniProt Q9HBH9); details: described in WO 02/103361; cited from earlier work
BS125 cells = experiment: MTT-based cell proliferation assay, BS125 cells; parameters: species or system human; details: 10 μM CGP57380 with increasing amounts of rapamycin, 5 days after treatment
Procedure: (§1) Cell proliferation was assayed using MTT-based method 5 days after treatment. Growth in untreated cells was used as a reference. Data shown are the mean±SD values of at least three separate experiments.
(§2) Human brain tumor cell lines; BS125 and LN319 were derived from human patients. The “BS” series were generated at the University of Basel, Switzerland while the “LN” series was generated in Lausanne, Switzerland (Ishii et al., […], Brain Pathol. 9:469-79). These cells were cultured in DMEM supplemented with 10% FCS and standard antibiotics in an incubator at 37° C. and 5% CO2 humidified atmosphere. Transfection was accomplished using Lipofectamine (Invitrogen) according to the supplier's instructions. For overexpression experiments, previously reported MNK1-Flag construct (Knauf et al., 2001, Mol Cell Biol. 21:5500-11) were used. […]
(§3) For cell proliferation MTT-based assays in 96-well plates, about ˜5000 cells were seeded 1 day before drug treatment. […] The number of viable cells was measured using CellTiter 96® AQueous Non-Radioactive Cell Proliferation Assay (Promega) used according to manufacturer's instruction. In addition, cell growth was also monitored by counting cell number with a Vi-Cell XR cell viability analyzer (Beckman Coulter). […] Cells were counted every day over a 5-day period.

phosphorylated eIF4E = details: cells transfected with Mnk2 (Mnk2a or Mnk2b) or Mnk1; cited from earlier work
LN319 cells = experiment: MTT-based cell proliferation assay, LN319 cells; parameters: species or system human; details: 10 μM CGP57380 with increasing amounts of rapamycin, 5 days after treatment
Procedure: as §1, §2, §3

Sequence of human Mnk2 protein (Q9HBH9 whole entry): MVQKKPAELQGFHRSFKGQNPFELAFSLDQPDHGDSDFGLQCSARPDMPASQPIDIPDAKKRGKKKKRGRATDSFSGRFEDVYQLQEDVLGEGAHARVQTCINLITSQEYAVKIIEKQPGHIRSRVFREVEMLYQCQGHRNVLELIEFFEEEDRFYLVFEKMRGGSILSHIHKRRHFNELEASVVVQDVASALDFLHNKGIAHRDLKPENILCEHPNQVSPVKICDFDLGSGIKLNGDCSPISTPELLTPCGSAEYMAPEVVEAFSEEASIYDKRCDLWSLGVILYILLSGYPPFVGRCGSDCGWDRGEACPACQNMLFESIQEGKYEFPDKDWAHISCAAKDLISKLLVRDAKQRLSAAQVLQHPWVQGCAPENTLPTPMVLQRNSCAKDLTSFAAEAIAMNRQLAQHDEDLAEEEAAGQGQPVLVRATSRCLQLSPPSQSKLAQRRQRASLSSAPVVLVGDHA

| SMILES | binding to human Mnk2 protein (human Mnk2 protein) | inhibitory effect on cell proliferation (BS125 cells) | reduction of phosphorylated eIF4E (phosphorylated eIF4E) | inhibitory effect on cell proliferation (LN319 cells) |
| --- | --- | --- | --- | --- |
| COC(=O)c1ccc(O)cc1 [4-hydroxybenzoic acid methyl ester] | binds the human Mnk2 protein | – | – | – |
| Nc1ncnc2n[nH]c(Nc3ccc(F)cc3)c12 [CGP57380] | – | significantly increases the inhibitory effect on cell proliferation | strong reduction of phosphorylated eIF4E | significantly increases the inhibitory effect on cell proliferation |
